From ChEMBL document CHEMBL1201862, “PubChem BioAssay data set” (2004)
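Protocol summary: plate cells (96-well), add compound at 5 concentrations, incubate 48 h, interpolate endpoints linearly. Abbreviation: GI50, concentration required for 50% inhibition of growth.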 Activity calls are given as the source filed them. Cut-off read from the data, not from the text of the source: active = GI50 up to about 1.1 µM and inactive = higher.

What was measured:
Experiment in all cases: inhibition of tumour cell growth, NCI panel, 48 h
786-0 = test system: 786-0
A498 = test system: A498
A549 = test system: A549
ACHN = test system: ACHN
BT-549 = test system: BT-549
CAKI-1 = test system: CAKI-1
DU-145 = test system: DU-145
EKVX = test system: EKVX
HCC 2998 = test system: HCC 2998
HCT-116 = test system: HCT-116
HCT-15 = test system: HCT-15
HOP-62 = test system: HOP-62
HOP-92 = test system: HOP-92
HT-29 = test system: HT-29
Hs-578T = test system: Hs-578T
IGROV-1 = test system: IGROV-1
K562 = test system: K562
KM12 = test system: KM12
LOX IMVI = test system: LOX IMVI
M14 = test system: M14
MDA-MB-231 = test system: MDA-MB-231
MDA-MB-435 = test system: MDA-MB-435
MDA-N = test system: MDA-N
MOLT-4 = test system: MOLT-4
Malme-3M = test system: Malme-3M
NCI-H226 = test system: NCI-H226
NCI-H23 = test system: NCI-H23
NCI-H460 = test system: NCI-H460
NCI-H522 = test system: NCI-H522
NCI/ADR-RES = test system: NCI/ADR-RES
OVCAR-3 = test system: OVCAR-3
OVCAR-4 = test system: OVCAR-4
OVCAR-5 = test system: OVCAR-5
OVCAR-8 = test system: OVCAR-8
PC-3 = test system: PC-3
RXF 393 = test system: RXF 393
SF-268 = test system: SF-268
SF-295 = test system: SF-295
SK-MEL-28 = test system: SK-MEL-28
SK-MEL-2 = test system: SK-MEL-2
SK-MEL-5 = test system: SK-MEL-5
SN12C = test system: SN12C
SNB-19 = test system: SNB-19
SNB-75 = test system: SNB-75
SR = test system: SR
SW-620 = test system: SW-620
T47D = test system: T47D
TK-10 = test system: TK-10
U-251 = test system: U-251
UACC-257 = test system: UACC-257
UACC-62 = test system: UACC-62
UO-31 = test system: UO-31

Question: CC(CCc1nc2ccccc2s1)(c1ccc(O)cc1)c1ccc(O)cc1 was tested. Which GI50 (786-0) did it give?
Answer: Its GI50 is 15.1 µM (inactive).

Question: What about the GI50 (A498) of the same molecule?
Answer: Its GI50 is 20.7 µM (inactive).

Question: What about the GI50 (A549) of the same molecule?
Answer: Its GI50 is 18.3 µM (inactive).

Question: What about the GI50 (ACHN) of the same molecule?
Answer: Its GI50 is 18.3 µM (inactive).

Question: What about the GI50 (BT-549) of the same molecule?
Answer: The GI50 was 19.4 µM (inactive).

Question: What about the GI50 (CAKI-1) of the same molecule?
Answer: Its GI50 is 20.6 µM (inactive).

Question: And the GI50 (DU-145)?
Answer: Its GI50 is 17.1 µM (inactive).

Question: And the GI50 (EKVX)?
Answer: The GI50 was 16.8 µM (inactive).

Question: And the GI50 (HCC 2998)?
Answer: Its GI50 is 19.7 µM (inactive).

Question: And the GI50 (HCT-116)?
Answer: The GI50 was 18.2 µM (inactive).

Question: And the GI50 (HCT-15)?
Answer: Its GI50 is 18.4 µM.

Question: What about the GI50 (HOP-62) of the same molecule?
Answer: The GI50 was 17.7 µM (inactive).

Question: What about the GI50 (HOP-92) of the same molecule?
Answer: The GI50 was 20.1 µM (inactive).

Question: What about the GI50 (HT-29) of the same molecule?
Answer: The GI50 was 20.1 µM (inactive).

Question: And the GI50 (Hs-578T)?
Answer: The GI50 was 20.4 µM (inactive).

Question: And the GI50 (IGROV-1)?
Answer: Its GI50 is 14.2 µM (inactive).

Question: And the GI50 (K562)?
Answer: The GI50 was 15.4 µM (inactive).

Question: What about the GI50 (KM12) of the same molecule?
Answer: The GI50 was 15.4 µM (inactive).

Question: What about the GI50 (LOX IMVI) of the same molecule?
Answer: The GI50 was 16 µM (inactive).

Question: What about the GI50 (M14) of the same molecule?
Answer: The GI50 was 16.1 µM (inactive).

Question: What about the GI50 (MDA-MB-231) of the same molecule?
Answer: Its GI50 is 17.9 µM (inactive).

Question: What about the GI50 (MDA-MB-435) of the same molecule?
Answer: The GI50 was 16.1 µM (inactive).

Question: What about the GI50 (MDA-N) of the same molecule?
Answer: Its GI50 is 16.5 µM (inactive).

Question: What about the GI50 (MOLT-4) of the same molecule?
Answer: The GI50 was 12.7 µM (inactive).

Question: What about the GI50 (Malme-3M) of the same molecule?
Answer: The GI50 was 16.5 µM (inactive).

Question: What about the GI50 (NCI-H226) of the same molecule?
Answer: Its GI50 is 22.3 µM (inactive).

Question: And the GI50 (NCI-H23)?
Answer: The GI50 was 17.6 µM (inactive).

Question: And the GI50 (NCI-H460)?
Answer: The GI50 was 16.4 µM (inactive).

Question: And the GI50 (NCI-H522)?
Answer: The GI50 was 15 µM (inactive).

Question: And the GI50 (NCI/ADR-RES)?
Answer: Its GI50 is 25.4 µM (inactive).

Question: And the GI50 (OVCAR-3)?
Answer: The GI50 was 17.5 µM (inactive).

Question: And the GI50 (OVCAR-4)?
Answer: The GI50 was 19.1 µM (inactive).

Question: And the GI50 (OVCAR-5)?
Answer: The GI50 was 18.1 µM (inactive).

Question: What about the GI50 (OVCAR-8) of the same molecule?
Answer: Its GI50 is 21.7 µM (inactive).

Question: What about the GI50 (PC-3) of the same molecule?
Answer: The GI50 was 14.8 µM (inactive).

Question: And the GI50 (RXF 393)?
Answer: The GI50 was 18 µM (inactive).

Question: What about the GI50 (SF-268) of the same molecule?
Answer: The GI50 was 20 µM (inactive).

Question: What about the GI50 (SF-295) of the same molecule?
Answer: Its GI50 is 15.6 µM (inactive).

Question: What about the GI50 (SK-MEL-28) of the same molecule?
Answer: Its GI50 is 19 µM (inactive).

Question: And the GI50 (SK-MEL-2)?
Answer: Its GI50 is 17 µM (inactive).

Question: What about the GI50 (SK-MEL-5) of the same molecule?
Answer: Its GI50 is 18.4 µM (inactive).

Question: And the GI50 (SN12C)?
Answer: Its GI50 is 17.9 µM (inactive).

Question: What about the GI50 (SNB-19) of the same molecule?
Answer: The GI50 was 17.5 µM (inactive).

Question: What about the GI50 (SNB-75) of the same molecule?
Answer: Its GI50 is 18.4 µM (inactive).

Question: What about the GI50 (SR) of the same molecule?
Answer: Its GI50 is 13.6 µM (inactive).

Question: And the GI50 (SW-620)?
Answer: The GI50 was 19.8 µM (inactive).

Question: What about the GI50 (T47D) of the same molecule?
Answer: Its GI50 is 24.8 µM (inactive).

Question: And the GI50 (TK-10)?
Answer: Its GI50 is 19.9 µM (inactive).

Question: And the GI50 (U-251)?
Answer: The GI50 was 14.6 µM (inactive).

Question: And the GI50 (UACC-257)?
Answer: The GI50 was 15.3 µM (inactive).

Question: And the GI50 (UACC-62)?
Answer: Its GI50 is 15.9 µM (inactive).

Question: What about the GI50 (UO-31) of the same molecule?
Answer: Its GI50 is 16.1 µM (inactive).
